In brackets after ≈: the same amount, converted by molar mass. Read-outs that look alike come from different tables or passages of the source. Positions of bridges follow the written chain, without caps; N, C: chain ends. Non-standard residues stand in square brackets, D forms with d. Residues, ends and D or L forms follow the SMILES beside them. *: point of attachment. Isonicotinoyl(2-Ph) = O=C(c1ccnc(-c2ccccc2)c1)*; Benzoyl(4-OPh) = O=C(c1ccc(Oc2ccccc2)cc1)*; Benzoyl(4-Ph) = O=C(c1ccc(-c2ccccc2)cc1)*; Butanoyl(4-OPh) = O=C(CCCOc1ccccc1)*; X1 = CCCCCCCN1CCC(C(=O)*)CC1; dDab = NCC[C@@H](N)C(=O)O; Dab = NCC[C@H](N)C(=O)O; X5 = O=C(CCCCCCCO)*
Legend:
[1] = in vitro; settings: human
Procedure, shortened: (§1)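 Cells (4000/well, pre-attached 24 h) then received 5 μM resazurin for 2 h, with fluorescence measured at ex 560/em 590.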

[2] = in vitro; settings: human; remark: listed apart in the source
Procedure, shortened: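 HK2 cells were seeded at 2000 per well in DMEM/F12 with 10% FBS and left to attach for 24 h at 37 °C, 5% CO2. They were then exposed for 24 h to 3-fold peptide dilutions starting from 600 μM solutions in quadruplicate. LDH release was read at 450 nm, and CC50 was fitted from dose-response curves.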

[3] = test system: P. aeruginosa ATCC 27853; settings: ATCC 27853
Procedure, shortened: (§2)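 Mid-log cultures grown in Mueller Hinton broth at 37° C were tested by 2-fold broth microdilution at 5×10^5 CFU/mL final. Compounds were dissolved in water and tested over a final range of 32 to 0.015 μg/mL.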

[4] = test system: K. pneumoniae ATCC 13883; settings: ATCC 13883
Procedure, shortened: as §2

[5] = test system: K. pneumoniae ATCC 700603, MDR; settings: ATCC 700603
Procedure, shortened: as §2

[6] = test system: K. pneumoniae GN_102 PmxR; settings: GN 102 PmxR
Procedure, shortened: as §2

[7] = test system: S. aureus ATCC 25923, MSSA; settings: ATCC 25923
Procedure, shortened: as §2

[8] = test system: E. coli ATCC 25922; settings: ATCC 25922
Procedure, shortened: as §2

[9] = test system: K. pneumoniae GN_106, PmxR; settings: GN 106, PmxR
Procedure, shortened: as §2

[10] = test system: A. baumannii GN_093 PmxR; settings: GN 093 PmxR
Procedure, shortened: as §2

[11] = test system: P. aeruginosa GN_105, PmxR; settings: GN 105, PmxR
Procedure, shortened: as §2

[12] = test system: K. pneumoniae ATCC BAA-2146, NDM-1 pos; settings: ATCC BAA-2146
Procedure, shortened: as §2

[13] = test system: A. baumannii ATCC 19606; settings: ATCC 19606
Procedure, shortened: as §2

[14] = test system: P. aeruginosa GN_043, PmxR
Procedure, shortened: as §2

[15] = in vitro; settings: human; remark: listed apart in the source
Procedure, shortened: as §1

## CC(C)C[C@@H]1NC(=O)[C@H](CCN)NC(=O)[C@H](CCN)NC(=O)[C@H](Cc2ccccc2)NC(=O)[C@@H](CC(C)C)NC(=O)[C@H](CCN)NC(=O)[C@@H](NC(=O)[C@@H](CCN)NC(=O)c2ccnc(-c3ccccc3)c2)CCNC1=O [compound 6517, 3Phe4-PyCO-D-Dab-cyc[L-Dab-L-Dab-D-Leu-L-Phe-L-Dab-L-Dab-L-Leu]] ({Isonicotinoyl(2-Ph)}-[dDab][Dab][Dab][dL]F[Dab][Dab]L; lactam 2-C)
[1]
  CC50 at 24 h: > 300 µM
[2]
  CC50 at 24 h: > 300 µM
[3]
  MIC P. aeruginosa ATCC 27853: 2 µg/mL (≈ 1.9 µM)
[4]
  MIC K. pneumoniae ATCC 13883: 32 µg/mL (≈ 30.3 µM)
[5]
  MIC K. pneumoniae ATCC 700603, MDR: 8 µg/mL (≈ 7.58 µM)
[6]
  MIC K. pneumoniae GN_102 PmxR: >32 µg/mL
[7]
  MIC S. aureus ATCC 25923, MSSA: >32 µg/mL
[8]
  MIC E. coli ATCC 25922: 8 µg/mL (≈ 7.58 µM)
[9]
  MIC K. pneumoniae GN_106, PmxR: 32 µg/mL (≈ 30.3 µM)
[10]
  MIC A. baumannii GN_093 PmxR: >32 µg/mL
[11]
  MIC P. aeruginosa GN_105, PmxR: 4 µg/mL (≈ 3.79 µM)
[12]
  MIC K. pneumoniae ATCC BAA-2146, NDM-1 pos: 32 µg/mL (≈ 30.3 µM)
[13]
  MIC A. baumannii ATCC 19606: >32 µg/mL
[14]; P. aeruginosa GN_043, PmxR
  MIC P. aeruginosa GN_043, PmxR: 1 µg/mL (≈ 0.948 µM)
[15]
  CC50 at 24 h: > 300 µM

## CC(C)C[C@@H]1NC(=O)[C@H](CCN)NC(=O)[C@H](CCN)NC(=O)[C@H](Cc2ccccc2)NC(=O)[C@@H](CC(C)C)NC(=O)[C@H](CCN)NC(=O)[C@@H](NC(=O)[C@@H](CCN)NC(=O)c2ccc(-c3ccccc3)cc2)CCNC1=O [compound 6518, Ph-4-PhCO-D-Dab-cyc[L-Dab-L-Dab-D-Leu-L-Phe-L-Dab-L-Dab-L-Leu]] ({Benzoyl(4-Ph)}-[dDab][Dab][Dab][dL]F[Dab][Dab]L; lactam 2-C)
[1]
  CC50 at 24 h: ≥ 300 µM
[2]
  CC50 at 24 h: 180 µM
[3]
  MIC P. aeruginosa ATCC 27853: 2 µg/mL (≈ 1.9 µM)
[4]
  MIC K. pneumoniae ATCC 13883: 16 µg/mL (≈ 15.2 µM)
[5]
  MIC K. pneumoniae ATCC 700603, MDR: 8 µg/mL (≈ 7.59 µM)
[6]
  MIC K. pneumoniae GN_102 PmxR: >32 µg/mL
[7]
  MIC S. aureus ATCC 25923, MSSA: 32 µg/mL (≈ 30.4 µM)
[8]
  MIC E. coli ATCC 25922: 2 µg/mL (≈ 1.9 µM)
[9]
  MIC K. pneumoniae GN_106, PmxR: 32 µg/mL (≈ 30.4 µM)
[10]
  MIC A. baumannii GN_093 PmxR: >32 µg/mL
[11]
  MIC P. aeruginosa GN_105, PmxR: 2 µg/mL (≈ 1.9 µM)
[12]
  MIC K. pneumoniae ATCC BAA-2146, NDM-1 pos: 16 µg/mL (≈ 15.2 µM)
[13]
  MIC A. baumannii ATCC 19606: >32 µg/mL
[14]; P. aeruginosa GN_043, PmxR
  MIC P. aeruginosa GN_043, PmxR: 2 µg/mL (≈ 1.9 µM)
[15]
  CC50 at 24 h: > 300 µM

## CC(C)C[C@@H]1NC(=O)[C@H](CCN)NC(=O)[C@H](CCN)NC(=O)[C@H](Cc2ccccc2)NC(=O)[C@@H](CC(C)C)NC(=O)[C@H](CCN)NC(=O)[C@@H](NC(=O)[C@@H](CCN)NC(=O)c2ccc(Oc3ccccc3)cc2)CCNC1=O [compound 6519, Ph-4-OPhCO-D-Dab-cyc[L-Dab-L-Dab-D-Leu-L-Phe-L-Dab-L-Dab-L-Leu]] ({Benzoyl(4-OPh)}-[dDab][Dab][Dab][dL]F[Dab][Dab]L; lactam 2-C)
[1]
  CC50 at 24 h: > 300 µM
[2]
  CC50 at 24 h: 163 µM
[3]
  MIC P. aeruginosa ATCC 27853: 2 µg/mL (≈ 1.87 µM)
[4]
  MIC K. pneumoniae ATCC 13883: 16 µg/mL (≈ 14.9 µM)
[5]
  MIC K. pneumoniae ATCC 700603, MDR: 8 µg/mL (≈ 7.47 µM)
[6]
  MIC K. pneumoniae GN_102 PmxR: >32 µg/mL
[7]
  MIC S. aureus ATCC 25923, MSSA: 32 µg/mL (≈ 29.9 µM)
[8]
  MIC E. coli ATCC 25922: 2 µg/mL (≈ 1.87 µM)
[9]
  MIC K. pneumoniae GN_106, PmxR: 32 µg/mL (≈ 29.9 µM)
[10]
  MIC A. baumannii GN_093 PmxR: 32 µg/mL (≈ 29.9 µM)
[11]
  MIC P. aeruginosa GN_105, PmxR: 4 µg/mL (≈ 3.74 µM)
[12]
  MIC K. pneumoniae ATCC BAA-2146, NDM-1 pos: 16 µg/mL (≈ 14.9 µM)
[13]
  MIC A. baumannii ATCC 19606: >32 µg/mL
[14]; P. aeruginosa GN_043, PmxR
  MIC P. aeruginosa GN_043, PmxR: 1 µg/mL (≈ 0.934 µM)
[15]
  CC50 at 24 h: > 300 µM

## CC(C)C[C@@H]1NC(=O)[C@H](CCN)NC(=O)[C@H](CCN)NC(=O)[C@H](Cc2ccccc2)NC(=O)[C@@H](CC(C)C)NC(=O)[C@H](CCN)NC(=O)[C@@H](NC(=O)[C@@H](CCN)NC(=O)CCCOc2ccccc2)CCNC1=O [compound 6521, 4-phenoxybutanoic acid-D-Dab-cyc[L-Dab-L-Dab-D-Leu-L-Phe-L-Dab-L-Dab-L-Leu]] ({Butanoyl(4-OPh)}-[dDab][Dab][Dab][dL]F[Dab][Dab]L; lactam 2-C)
[1]
  CC50 at 24 h: > 300 µM
[2]
  CC50 at 24 h: 290 µM
[3]
  MIC P. aeruginosa ATCC 27853: 2 µg/mL (≈ 1.93 µM)
[4]
  MIC K. pneumoniae ATCC 13883: 32 µg/mL (≈ 30.9 µM)
[5]
  MIC K. pneumoniae ATCC 700603, MDR: 16 µg/mL (≈ 15.4 µM)
[6]
  MIC K. pneumoniae GN_102 PmxR: 16 µg/mL (≈ 15.4 µM)
[7]
  MIC S. aureus ATCC 25923, MSSA: >32 µg/mL
[8]
  MIC E. coli ATCC 25922: 8 µg/mL (≈ 7.72 µM)
[9]
  MIC K. pneumoniae GN_106, PmxR: 32 µg/mL (≈ 30.9 µM)
[10]
  MIC A. baumannii GN_093 PmxR: >32 µg/mL
[11]
  MIC P. aeruginosa GN_105, PmxR: 16 µg/mL (≈ 15.4 µM)
[12]
  MIC K. pneumoniae ATCC BAA-2146, NDM-1 pos: 16 µg/mL (≈ 15.4 µM)
[13]
  MIC A. baumannii ATCC 19606: >32 µg/mL
[14]; P. aeruginosa GN_043, PmxR
  MIC P. aeruginosa GN_043, PmxR: 2 µg/mL (≈ 1.93 µM)
[15]
  CC50 at 24 h: > 300 µM

## CC(C)C[C@@H]1NC(=O)[C@H](CCN)NC(=O)[C@H](CCN)NC(=O)[C@H](CC(C)C)NC(=O)[C@@H](Cc2ccccc2)NC(=O)[C@H](CCN)NC(=O)[C@@H](NC(=O)[C@@H](CCN)NC(=O)CCCCCCCO)CCNC1=O [compound 6522, 8OH-nC7CO-D-Dab-cyc[L-Dab-L-Dab-D-Phe-L-Leu-L-Dab-L-Dab-L-Leu]] (X5-[dDab][Dab][Dab][dF]L[Dab][Dab]L; lactam 2-C)
[1]
  CC50 at 24 h: > 300 µM
[2]
  CC50 at 24 h: 208 µM
[3]
  MIC P. aeruginosa ATCC 27853: 2 µg/mL (≈ 1.97 µM)
[4]
  MIC K. pneumoniae ATCC 13883: >32 µg/mL
[5]
  MIC K. pneumoniae ATCC 700603, MDR: >32 µg/mL
[6]
  MIC K. pneumoniae GN_102 PmxR: >32 µg/mL
[7]
  MIC S. aureus ATCC 25923, MSSA: >32 µg/mL
[8]
  MIC E. coli ATCC 25922: >32 µg/mL
[9]
  MIC K. pneumoniae GN_106, PmxR: >32 µg/mL
[10]
  MIC A. baumannii GN_093 PmxR: >32 µg/mL
[11]
  MIC P. aeruginosa GN_105, PmxR: >32 µg/mL
[12]
  MIC K. pneumoniae ATCC BAA-2146, NDM-1 pos: >32 µg/mL
[13]
  MIC A. baumannii ATCC 19606: >32 µg/mL
[14]
  MIC P. aeruginosa GN_043, PmxR: 2 µg/mL (≈ 1.97 µM)
[15]
  CC50 at 24 h: > 300 µM

## CCCCCCCN1CCC(C(=O)N[C@H](CCN)C(=O)N[C@H]2CCNC(=O)[C@H](CC(C)C)NC(=O)[C@H](CCN)NC(=O)[C@H](CCN)NC(=O)[C@H](CC(C)C)NC(=O)[C@@H](Cc3ccccc3)NC(=O)[C@H](CCN)NC2=O)CC1 [compound 6524, 1-heptylpiperidine-4-carboxylic acid-D-Dab-cyc[L-Dab-L-Dab-D-Phe-L-Leu-L-Dab-L-Dab-L-Leu]] (X1-[dDab][Dab][Dab][dF]L[Dab][Dab]L; lactam 2-C)
[1]
  CC50 at 24 h: > 300 µM
[2]
  CC50 at 24 h: 106 µM
[3]
  MIC P. aeruginosa ATCC 27853: 1 µg/mL (≈ 0.923 µM)
[4]
  MIC K. pneumoniae ATCC 13883: >32 µg/mL
[5]
  MIC K. pneumoniae ATCC 700603, MDR: >32 µg/mL
[6]
  MIC K. pneumoniae GN_102 PmxR: >32 µg/mL
[7]
  MIC S. aureus ATCC 25923, MSSA: 32 µg/mL (≈ 29.5 µM)
[8]
  MIC E. coli ATCC 25922: 32 µg/mL (≈ 29.5 µM)
[9]
  MIC K. pneumoniae GN_106, PmxR: 32 µg/mL (≈ 29.5 µM)
[10]
  MIC A. baumannii GN_093 PmxR: >32 µg/mL
[11]
  MIC P. aeruginosa GN_105, PmxR: 2 µg/mL (≈ 1.85 µM)
[12]
  MIC K. pneumoniae ATCC BAA-2146, NDM-1 pos: 32 µg/mL (≈ 29.5 µM)
[13]
  MIC A. baumannii ATCC 19606: >32 µg/mL
[14]
  MIC P. aeruginosa GN_043, PmxR: 0.5 µg/mL (≈ 0.461 µM)
[15]
  CC50 at 24 h: > 300 µM
